Paper PMC6270012, “Inhibitory Evaluation of Sulfonamide Chalcones on β-Secretase and Acylcholinesterase” (Molecules, 2012)
Entries after “also recorded” stand apart in the source; their conditions may differ. Read-outs that look alike come from different tables or passages of the source.

How the values were obtained:
Format in all cases: biochemical
[1] = molecular target: T1, BACE1 (Homo sapiens, UniProt P56817); test: BACE1 FRET peptide cleavage assay; details: for Inhibition type: Lineweaver-Burk and Dixon plots
T1 construct: purchased RD System, Inc. (WI, USA)
T1 sequence (P56817 46-501): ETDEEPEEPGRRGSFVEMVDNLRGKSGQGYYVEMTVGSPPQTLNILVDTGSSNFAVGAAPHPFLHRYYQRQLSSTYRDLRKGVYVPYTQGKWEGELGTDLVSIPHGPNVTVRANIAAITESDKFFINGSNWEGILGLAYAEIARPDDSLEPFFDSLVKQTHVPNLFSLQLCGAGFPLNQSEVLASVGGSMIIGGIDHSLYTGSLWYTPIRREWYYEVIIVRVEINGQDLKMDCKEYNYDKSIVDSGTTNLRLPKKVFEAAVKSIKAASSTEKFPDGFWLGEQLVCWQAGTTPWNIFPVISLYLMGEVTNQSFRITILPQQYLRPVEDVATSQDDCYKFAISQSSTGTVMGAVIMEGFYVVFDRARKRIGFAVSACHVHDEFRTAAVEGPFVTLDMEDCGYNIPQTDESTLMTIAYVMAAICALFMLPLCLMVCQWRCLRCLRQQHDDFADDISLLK
Method: In this assay, BACE1-catalyzed proteolysis of a synthetic oligopeptide substituted with a fluorescent dye and a quencher leads to an increase in fluorescence by breaking the tether between the dye and the quencher. […] The assay was carried out according to the supplied manual with small modifications.
The assay was carried out according to the supplied manual with modifications. Briefly, a mixture of 10 μL of assay buffer (50 mM sodium acetate, pH 4.5), 10 μL of BACE1 (1.0 U/mL), 10 μL of the substrate (750 nM Rh-[…]-Quencher in 50 mM sodium acetate, pH 4.5), and 10 μL of sample dissolved in 50 mM ammonium bicarbonate buffer (pH 7.8) was incubated for 60 min at room temperature in the dark. The mixture was irradiated at 545 nm and the emission intensity at 590 nm was recorded. The inhibition ratio was obtained by the following equation: Inhibition (%) = [1 − {(S−S0)/(C−C0)}] × 100 where C was the fluorescence of the control (enzyme, buffer, and substrate) after 60 min of incubation, C0 was the fluorescence of control at zero time, S was the fluorescence of the tested samples (enzyme, sample solution, and substrate) after incubation, and S0 was the fluorescence of the tested samples at zero time. To allow for the quenching effect of the samples, the sample solution was added to the reaction mixture C, and any reduction in fluorescence by the sample was then investigated. All data are the mean of three experiments.

[2] = molecular target: T2, equine serum BChE (Equus caballus, UniProt P81908); test: Cholinesterase inhibitory activity (Ellman), BChE; details: for Ki: read-out: Ki (inhibition constant) BChE
T2 construct: 2 μL of equine serum BChE (0.05 U/mL) solution; from tissue; host or cells: equine serum
T2 sequence (P81908 whole entry): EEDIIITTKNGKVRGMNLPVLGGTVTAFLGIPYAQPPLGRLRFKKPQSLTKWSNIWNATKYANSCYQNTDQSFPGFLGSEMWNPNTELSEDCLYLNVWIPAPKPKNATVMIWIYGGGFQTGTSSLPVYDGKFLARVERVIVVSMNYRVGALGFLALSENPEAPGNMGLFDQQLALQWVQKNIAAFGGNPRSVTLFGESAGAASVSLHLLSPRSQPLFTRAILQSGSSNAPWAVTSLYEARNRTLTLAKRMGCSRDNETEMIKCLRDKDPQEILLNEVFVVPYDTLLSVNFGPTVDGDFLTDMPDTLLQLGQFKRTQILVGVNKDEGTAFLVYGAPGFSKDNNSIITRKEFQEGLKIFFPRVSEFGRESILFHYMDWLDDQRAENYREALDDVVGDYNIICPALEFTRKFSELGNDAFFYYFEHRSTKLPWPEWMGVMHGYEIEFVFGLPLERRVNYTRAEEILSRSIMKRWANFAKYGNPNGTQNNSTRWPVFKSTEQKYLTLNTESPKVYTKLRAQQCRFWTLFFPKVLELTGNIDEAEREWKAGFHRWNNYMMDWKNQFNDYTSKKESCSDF
Method: (§1) Cholinesterase was assayed according to standard procedures by following the hydrolysis of acetylthiocholine iodide (AtCh) or butyrylthiocholine iodide (BtCh) by monitoring formation of 5-thio-2-nitrobenzoate from 5-5'-dithiobis(2-nitrobenzoic acid) spectrometrically at 412 nm. The reaction mixture contained 100 mM sodium phosphate buffer (pH 8.0), 20 μL of test sample solution and either 2 μL of human erythrocyte AChE (0.25 U/mL) or 2 μL of equine serum BChE (0.05 U/mL) solution, which were mixed and incubated for 10 min at room temperature. Assays were then initiated with the addition of 30 μL 5-5'-dithiobis(2-nitrobenzoic acid) (3.3 mM) and, respectively, 20 μL of AtCh (1 mM), and 7 μL of BtCh (1 mM). All assays were performed in triplicate. […] Kinetic parameters were determined using the Lineweaver-Burk double-reciprocal-plot method at increasing concentration of substrates and inhibitors.

[3] = molecular target: T3, human erythrocyte AChE (Homo sapiens, UniProt P22303); test: Cholinesterase inhibitory activity (Ellman), AChE; details: for IC50: read-out: IC50 erythrocytes AChE; for Ki: read-out: Ki (inhibition constant) AChE
T3 construct: 2 μL of human erythrocyte AChE (0.25 U/mL); from tissue; host or cells: human erythrocytes
T3 sequence (P22303 other isoform, or with tags, fused parts or gaps): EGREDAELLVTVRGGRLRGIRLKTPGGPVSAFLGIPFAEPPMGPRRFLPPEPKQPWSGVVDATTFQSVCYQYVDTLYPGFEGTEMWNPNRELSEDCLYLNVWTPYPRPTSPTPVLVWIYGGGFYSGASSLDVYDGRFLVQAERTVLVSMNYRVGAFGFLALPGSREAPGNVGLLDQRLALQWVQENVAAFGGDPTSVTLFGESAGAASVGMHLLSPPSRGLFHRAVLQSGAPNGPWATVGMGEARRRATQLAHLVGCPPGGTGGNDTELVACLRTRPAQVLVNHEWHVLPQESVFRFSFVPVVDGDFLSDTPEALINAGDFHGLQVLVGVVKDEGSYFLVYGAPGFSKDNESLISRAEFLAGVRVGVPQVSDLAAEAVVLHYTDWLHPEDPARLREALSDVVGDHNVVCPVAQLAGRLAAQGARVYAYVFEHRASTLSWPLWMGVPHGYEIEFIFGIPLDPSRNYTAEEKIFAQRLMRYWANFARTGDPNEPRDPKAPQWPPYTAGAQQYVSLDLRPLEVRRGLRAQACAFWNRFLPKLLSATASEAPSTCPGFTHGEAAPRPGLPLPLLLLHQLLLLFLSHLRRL
Method: as §1

[4] = molecular target: T1, BACE1; test: Slow and time-dependent inhibitory activity on BACE1 (progress curves); details: preincubation 0-60 min, progress curves 3,600 s
Method: To further investigate the inhibition mechanism, time dependence of BACE1inhibition by compound 5a was subsequently probed. The enzyme was preincubated with […] (between 0 and 60 min) and the residual enzyme activity was measured by calculating the initial velocity (Vi) of the hydrolysis (Figure 3B). Progress curves were continued to be run up for 3,600 s.
Slow and time-dependent assays and progress curves were carried out using 1 U/mL unit BACE1, and 10 μL substrate in 50 mM ammonium bicarbonate pH 7.8 at 37 °C. Enzyme activities were measured continuously for 3,600 s spectrophotometrically. To determine the kinetic parameters associated with time dependent inhibition of BACE1, progress curves for 3,600 s were obtained at one inhibitor concentration using fixed substrate concentrations. The data were analyzed using the nonlinear regression program [Sigma Plot (SPCC Inc., Chicago, IL, USA)].

[5] = BACE1, Dixon plot, read-out: Ki (inhibition constant)
[6] = BACE1 activity, mean of three experiments ± SD

| SMILES | Ki [1, 5] | IC50 [1, 6] | IC50 [2] | Ki [2] | IC50 [3] | Ki [3] | also measured |
| --- | --- | --- | --- | --- | --- | --- | --- |
| Nc1ccc(C(=O)/C=C/c2ccc(O)cc2)cc1 [Compound 1, 4′-Amino-4-hydroxychalcone] | 43.8 µM | 48.2 ± 1.2 µM | – | – | – | – | – |
| Nc1ccc(C(=O)/C=C/c2ccc(O)c(O)c2)cc1 [Compound 2, 4′-Amino-3,4-dihydroxychalcone] | 10.5 µM | 17.7 ± 0.8 µM | – | – | – | – | – |
| CC(=O)Nc1ccc(C(=O)/C=C/c2ccc(O)cc2)cc1 [Compound 3, 4′-Acetamido-4-hydroxychalcone] | – | > 200 µM | – | – | – | – | BACE1 inhibition ([1]; at concentrations as high as 200 μM): inactive |
| Cc1ccc(S(=O)(=O)Nc2ccc(C(=O)/C=C/c3ccc(O)cc3)cc2)cc1 [Compound 4a, 4'-(4-Toluenesulfonamide)-4-hydroxychalcone] | 0.56 µM | 1.44 ± 0.2 µM | 47.4 µM | 25.3 µM | 56.1 µM | 40.4 µM | Inhibition type ([1]; BACE1): mixed type |
| Cc1ccc(S(=O)(=O)Nc2ccc(C(=O)/C=C/c3ccccc3)cc2)cc1 [Compound 4b, 4′-(4-Toluenesulfonamido)-chalcone] | – | 169 ± 2.4 µM | – | – | – | – | – |
| O=C(/C=C/c1ccc(O)cc1)c1ccc(NS(=O)(=O)c2ccccc2)cc1 [Compound 4c, 4′-(Benzenesulfonamide)-4-hydroxychalcone] | 5.83 µM | 6.28 ± 0.7 µM | 75 µM | 72.2 µM | 83.3 µM | 80.3 µM | – |
| O=C(/C=C/c1ccc(O)cc1)c1ccc(NS(=O)(=O)c2ccc(O)cc2)cc1 [Compound 4d, 4′-(4-Hydroxybenzenesulfonamide)-4-hydroxychalcone] | 1.49 µM | 2.88 ± 0.5 µM | – | – | – | – | – |
| COc1ccc(S(=O)(=O)Nc2ccc(C(=O)/C=C/c3ccc(O)cc3)cc2)cc1 [Compound 4e, 4′-(4-Methoxybenzenesulfonamido)-4-hydroxychalcone] | 75.2 µM | 79.3 ± 2.3 µM | – | – | – | – | – |
| Nc1ccc(S(=O)(=O)Nc2ccc(C(=O)/C=C/c3ccc(O)cc3)cc2)cc1 [Compound 4f, 4′-(4-Aminobenzenesulfonamide)-4-hydroxychalcone] | 4.19 µM | 5.58 ± 1.4 µM | 34.3 µM | 19 µM | 95.8 µM | 61.5 µM | – |
| O=C(/C=C/c1ccc(O)cc1)c1ccc(NS(=O)(=O)c2ccc([N+](=O)[O-])cc2)cc1 [Compound 4g, 4′-(4-Nitrobenzenesulfonamide)-4-hydroxychalcone] | 94.8 µM | 107 ± 2.7 µM | – | – | – | – | – |
| O=C(/C=C/c1ccc(O)cc1)c1ccc(NS(=O)(=O)c2ccc(F)cc2)cc1 [Compound 4h, 4′-(4-Fluorobenzenesulfonamide)-4-hydroxychalcone] | – | 120 ± 3.2 µM | – | – | – | – | – |
| Cc1ccc(S(=O)(=O)Nc2ccc(C(=O)/C=C/c3ccc(O)c(O)c3)cc2)cc1 [Compound 5a, 4'-(4-Toluenesulfonamide)-3,4-dihydroxychalcone] | – | 0.21 ± 0.02 µM | 19.5 µM | 9.8 µM | 75.9 µM | 55.8 µM | Inhibition type ([1]; BACE1): mixed inhibitor; Ki ([1]; BACE1, read-out: Ki): 0.07 µM; Reversibility of inhibition ([1]; BACE1, residual activity versus enzyme concentration): reversible inhibitor; Time dependence of inhibition [4]: slow binding inhibitor; also recorded: time-dependent |
| O=C(/C=C/c1ccc(O)c(O)c1)c1ccc(NS(=O)(=O)c2ccccc2)cc1 [Compound 5b, 4′-(Benzenesulfonamide)-3,4-dihydroxychalcone] | 3.78 µM | 4.59 ± 1.5 µM | 79 µM | 63.5 µM | 75.4 µM | 57.2 µM | – |
| O=C(/C=C/c1ccc(O)c(O)c1)c1ccc(NS(=O)(=O)c2ccc(O)cc2)cc1 [Compound 5c, 4′-(4-Hydroxybenzenesulfonamide)-3,4-hydroxychalcone] | 0.56 µM | 0.62 ± 0.03 µM | 24.7 µM | 26.6 µM | 57.4 µM | 47.6 µM | – |
| Nc1ccc(S(=O)(=O)Nc2ccc(C(=O)/C=C/c3ccc(O)c(O)c3)cc2)cc1 [Compound 5d, 4′-(4-Aminobenzenesulfonamide)-3,4-dihydroxychalcone] | 0.69 µM | 0.69 ± 0.04 µM | – | – | – | – | – |
| O=C(/C=C/c1ccc(O)c(O)c1)c1ccc(NS(=O)(=O)c2ccc([N+](=O)[O-])cc2)cc1 [Compound 5e, 4′-(4-Nitrobenzenesulfonamide)-3,4-dihydroxychalcone] | 92.4 µM | 101 ± 2.4 µM | – | – | – | – | – |
| O=C(/C=C/c1ccc(O)c(O)c1)c1ccc(NS(=O)(=O)c2ccc(F)cc2)cc1 [Compound 5f, 4′-(4-Fluorobenzenesulfonamide)-3,4-dihydroxychalcone] | 10.8 µM | 8.95 ± 1 µM | – | – | – | – | – |
| Cc1ccc(S(=O)(=O)Nc2ccc(C(=O)/C=C/c3ccc(O)cc3O)cc2)cc1 [Compound 6, 4'-(4-Toluenesulfonamide)-2,4-dihydroxychalcone] | 1.89 µM | 3.6 ± 0.3 µM | – | – | – | – | – |
| O=c1c(O)c(-c2ccc(O)cc2O)oc2cc(O)cc(O)c12 [Morin, reference compound] | – | – | – | – | – | – | IC50 ([1]; BACE1): 12.3 µM |
